# In patent publication US20230099344A1, “COMPOUNDS AND METHODS FOR THE TARGETED DEGRADATION OF IRAK-4” (Arvinas Operations, Inc., priority 2021, published 2023):
# What was measured:
# Assay type in all cases: cell-based
# IL6 [1] = assay: LPS stimulated IL6 inhibition assay in PBMC; conditions: Homo sapiens, PBMC, 24 h, human PBMCs, LPS stimulation, compound overnight, IL6 by MSD after 24 hrs; for Dmax: read-out: LPS Stim IL6 inhibition Dmax; for IC50: read-out: LPS stim IL6 inhibition IC50
# Procedure, shortened: (§1)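 Read-out: MSD quantification of IL6 or IL8 in media collected 24 hrs after stimulation. Human PBMCs (2.0×10^6 cells/mL) received compound overnight before stimulant dosing at an EC50 concentration determined per donor.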
# IRAK-4 = biological target: T1, IRAK-4 (Homo sapiens, UniProt Q9NWZ3); assay: IRAK-4 ELISA, PBMC degradation; parameters: endogenous in cells; host or cells: PBMC; conditions: treated overnight
# T1 sequence (Q9NWZ3 1-460): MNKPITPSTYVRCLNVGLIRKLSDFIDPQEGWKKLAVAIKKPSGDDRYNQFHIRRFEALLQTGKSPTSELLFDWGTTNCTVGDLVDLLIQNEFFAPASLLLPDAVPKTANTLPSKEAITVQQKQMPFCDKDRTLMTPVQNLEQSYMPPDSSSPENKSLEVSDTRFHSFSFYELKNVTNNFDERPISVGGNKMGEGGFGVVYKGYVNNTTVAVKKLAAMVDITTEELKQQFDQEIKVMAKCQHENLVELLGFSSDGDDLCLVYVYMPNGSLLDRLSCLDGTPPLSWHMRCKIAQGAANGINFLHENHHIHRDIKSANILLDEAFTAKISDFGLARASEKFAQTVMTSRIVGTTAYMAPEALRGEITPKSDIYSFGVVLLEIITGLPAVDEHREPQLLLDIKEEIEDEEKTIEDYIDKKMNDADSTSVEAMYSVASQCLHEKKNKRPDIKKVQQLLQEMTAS
# Procedure, shortened: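 ELISA quantification of cellular IRAK-4 after compound treatment overnight; PBMC were plated at 2×10^6/ml, OCI-Ly10 at 1×10^6/ml.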
# IL6 [2] = assay: R848 stimulated IL6 inhibition assay in PBMC; conditions: PBMC, human PBMCs, R848 stimulation, compound overnight, IL6 by MSD after 24 hrs; for Dmax: Homo sapiens, 24 h, read-out: R848 stim IL6 inhibition Dmax; for IC50: read-out: R848 stim IL6 inhibition IC50
# Procedure, shortened: as §1
SMILES,Dmax (IL6 [1]) [%],IC50 (IL6 [1]) [nM],DC50 (IRAK-4) [nM],Dmax (IRAK-4) [%],PBMC DC90 (IRAK-4),Dmax (IL6 [2]) [%],IC50 (IL6 [2]) [nM]
CC(C)Oc1nc2c(cc1NC(=O)c1cnn3cccnc13)CN(C1CCN(CC3CCN(c4ccc(C(=O)NC5CCC(=O)NC5=O)c(F)c4)CC3)CC1)C2=O (stereo not drawn) [Example 309],< 70,10 to 50,1 to 5,≥ 90,B (B represents a DC90 value ≥10.0 nM and <25.0 nM),80 to 90,10 to 50
O=C1CCC(NC(=O)c2ccc(N3CCC(CN4CCC(N5Cc6cc(NC(=O)c7cnn8cccnc78)c(N7CCC(N8CCC8)CC7)cc6C5=O)CC4)CC3)cc2F)C(=O)N1 (stereo not drawn) [Example 310],70 to 80,≥ 100,1 to 5,≥ 90,A (A represents a DC90 value <10.0 nM),≥ 90,50 to 100
CC(C)Oc1cc2c(cc1NC(=O)c1cnn3cccnc13)CN(C1CCN(C(C)(C)C3CN(c4ccc(F)c(C(=O)NC5CCC(=O)NC5=O)c4)C3)CC1)C2=O (stereo not drawn) [Example 311],70 to 80,≥ 100,5 to 10,80 to 90,D (D represents a DC90 value ≥50 nM),≥ 90,10 to 50
CC(C)Oc1cc2c(cc1NC(=O)c1cnn3cccnc13)CN(C1CCN(C(C)(C)C3CN(c4ccc(C(=O)NC5CCC(=O)NC5=O)c(F)c4)C3)CC1)C2=O (stereo not drawn) [Example 312],≥ 90,10 to 50,1 to 5,≥ 90,A (A represents a DC90 value <10.0 nM),≥ 90,< 10
Cn1c(=O)n(C2CCC(=O)NC2=O)c2cccc(N3CC(N(C)[C@H]4CC[C@H](n5cc6cc(NC(=O)c7cnn8cccnc78)c(OCC7CC7)cc6n5)CC4)C3)c21 (stereo partly drawn) [Example 346],80 to 90,< 10,1 to 5,80 to 90,B (B represents a DC90 value ≥10.0 nM and <25.0 nM),≥ 90,10 to 50
O=C1CCC(N2C(=O)c3ccc(N4CCC5(CC4)CN([C@H]4CC[C@H](n6cc7cc(NC(=O)c8cnn9cccnc89)c(OCC8CC8)cc7n6)CC4)C5)cc3C2=O)C(=O)N1 (stereo partly drawn) [Example 353],70 to 80,10 to 50,1 to 5,80 to 90,B (B represents a DC90 value ≥10.0 nM and <25.0 nM),≥ 90,10 to 50
CN(CC1CCN(c2ccc3c(c2)C(=O)N(C2CCC(=O)NC2=O)C3=O)CC1)[C@H]1CC[C@H](n2cc3cc(NC(=O)c4cnn5cccnc45)c(OCC(F)F)cc3n2)CC1 (stereo partly drawn) [Example 357],≥ 90,< 10,< 1,70 to 80,A (A represents a DC90 value <10.0 nM),≥ 90,< 10
CN(C1CCN(c2ccc3c(c2)C(=O)N(C2CCC(=O)NC2=O)C3=O)CC1)[C@H]1CC[C@H](n2cc3cc(NC(=O)c4cnn5cccnc45)c(OCC(F)F)cc3n2)CC1 (stereo partly drawn) [Example 358],70 to 80,< 10,< 1,< 70,A (A represents a DC90 value <10.0 nM),≥ 90,< 10
CN(CCN1CCN(c2ccc3c(c2)C(=O)N(C2CCC(=O)NC2=O)C3=O)CC1)[C@H]1CC[C@H](n2cc3cc(NC(=O)c4cnn5cccnc45)c(OCC4CC4)cc3n2)CC1 (stereo partly drawn) [Example 359],80 to 90,< 10,< 1,80 to 90,A (A represents a DC90 value <10.0 nM),≥ 90,< 10
O=C1CCC(N2C(=O)c3ccc(N4CC5(C4)CN([C@H]4CC[C@H](n6cc7cc(NC(=O)c8cnn9cccnc89)c(OCC8CC8)cc7n6)CC4)C5)cc3C2=O)C(=O)N1 (stereo partly drawn) [Example 360],80 to 90,< 10,1 to 5,≥ 90,B (B represents a DC90 value ≥10.0 nM and <25.0 nM),≥ 90,< 10
CN(C1CN(c2ccc3c(c2F)CN(C2CCC(=O)NC2=O)C3=O)C1)[C@H]1CC[C@H](n2cc3cc(NC(=O)c4cnn5cccnc45)c(OCC4CC4)cc3n2)CC1 (stereo partly drawn) [Example 361],80 to 90,< 10,< 1,≥ 90,A (A represents a DC90 value <10.0 nM),≥ 90,< 10
CN(C1CN(c2ccc3c(c2F)CN(C2CCC(=O)NC2=O)C3=O)C1)[C@H]1CC[C@H](n2cc3cc(NC(=O)c4cnn5cccnc45)c(OCC(F)F)cc3n2)CC1 (stereo partly drawn) [Example 362],70 to 80,10 to 50,< 1,≥ 90,A (A represents a DC90 value <10.0 nM),≥ 90,< 10
CN(C1CN(c2ccc3c(c2)CN(C2CCC(=O)NC2=O)C3=O)C1)[C@H]1CC[C@H](n2cc3cc(NC(=O)c4cnn5cccnc45)c(OCC(F)F)cc3n2)CC1 (stereo partly drawn) [Example 363],70 to 80,10 to 50,< 1,≥ 90,A (A represents a DC90 value <10.0 nM),≥ 90,10 to 50
CC(C)Oc1cc2c(cc1NC(=O)c1cnn3cccnc13)CN([C@H]1CC[C@H](N(C)C3CN(c4ccc5c(c4F)CN(C4CCC(=O)NC4=O)C5=O)C3)CC1)C2=O (stereo partly drawn) [Example 364],< 70,50 to 100,1 to 5,≥ 90,A (A represents a DC90 value <10.0 nM),≥ 90,< 10
CC(C)Oc1cc2c(cc1NC(=O)c1cnn3cccnc13)CN([C@H]1CC[C@H](N(C)CC3(F)CN(c4ccc5c(c4)C(=O)N(C4CCC(=O)NC4=O)C5=O)C3)CC1)C2=O (stereo partly drawn) [Example 365],< 70,< 10,1 to 5,≥ 90,A (A represents a DC90 value <10.0 nM),≥ 90,10 to 50
CC(C)Oc1cc2c(cc1NC(=O)c1cnn3cccnc13)CN([C@H]1CC[C@H](N3CC4(CN(c5ccc6c(c5)C(=O)N(C5CCC(=O)NC5=O)C6=O)C4)C3)CC1)C2=O (stereo partly drawn) [Example 366],80 to 90,< 10,1 to 5,≥ 90,A (A represents a DC90 value <10.0 nM),≥ 90,< 10
O=C1CCC(N2Cc3c(cccc3N3CC4(CCCN(C5CCC(n6cc7cc(NC(=O)c8cnn9cccnc89)c(OCC8CC8)cc7n6)CC5)C4)C3)C2=O)C(=O)N1 (stereo not drawn) [Example 367],80 to 90,10 to 50,≥ 10,80 to 90,D (D represents a DC90 value ≥50 nM),≥ 90,10 to 50
CN(C1CN(c2ccc(C(=O)NC3CCC(=O)NC3=O)c(F)c2)C1)[C@H]1CC[C@H](n2cc3cc(NC(=O)c4cnn5cccnc45)c(OCC4CC4)cc3n2)CC1 (stereo partly drawn) [Example 368],70 to 80,10 to 50,1 to 5,≥ 90,A (A represents a DC90 value <10.0 nM),≥ 90,10 to 50
